According to patent US9902696B2, “1,4-substituted piperidine derivatives” (Cephalon, Inc., priority 2015, dated 2018):
Counter-ions that a name gives are not always drawn. Like-named read-outs stand apart in the source and are kept apart here.

Columns and labels:
[1] = target: T1, recombinant human baculovirus-expressed GST-tagged FASN (Homo sapiens, UniProt P49327); experiment: FASN enzyme activity assay, fluorescence-based detection of CoA with CPM; assay type: biochemical; settings: 5 nM FASN, 150 μM NADPH, 10 μM acetyl-CoA, 25 μM malonyl-CoA, 90 minutes incubation
T1 construct: GST
T1 sequence (P49327 whole entry): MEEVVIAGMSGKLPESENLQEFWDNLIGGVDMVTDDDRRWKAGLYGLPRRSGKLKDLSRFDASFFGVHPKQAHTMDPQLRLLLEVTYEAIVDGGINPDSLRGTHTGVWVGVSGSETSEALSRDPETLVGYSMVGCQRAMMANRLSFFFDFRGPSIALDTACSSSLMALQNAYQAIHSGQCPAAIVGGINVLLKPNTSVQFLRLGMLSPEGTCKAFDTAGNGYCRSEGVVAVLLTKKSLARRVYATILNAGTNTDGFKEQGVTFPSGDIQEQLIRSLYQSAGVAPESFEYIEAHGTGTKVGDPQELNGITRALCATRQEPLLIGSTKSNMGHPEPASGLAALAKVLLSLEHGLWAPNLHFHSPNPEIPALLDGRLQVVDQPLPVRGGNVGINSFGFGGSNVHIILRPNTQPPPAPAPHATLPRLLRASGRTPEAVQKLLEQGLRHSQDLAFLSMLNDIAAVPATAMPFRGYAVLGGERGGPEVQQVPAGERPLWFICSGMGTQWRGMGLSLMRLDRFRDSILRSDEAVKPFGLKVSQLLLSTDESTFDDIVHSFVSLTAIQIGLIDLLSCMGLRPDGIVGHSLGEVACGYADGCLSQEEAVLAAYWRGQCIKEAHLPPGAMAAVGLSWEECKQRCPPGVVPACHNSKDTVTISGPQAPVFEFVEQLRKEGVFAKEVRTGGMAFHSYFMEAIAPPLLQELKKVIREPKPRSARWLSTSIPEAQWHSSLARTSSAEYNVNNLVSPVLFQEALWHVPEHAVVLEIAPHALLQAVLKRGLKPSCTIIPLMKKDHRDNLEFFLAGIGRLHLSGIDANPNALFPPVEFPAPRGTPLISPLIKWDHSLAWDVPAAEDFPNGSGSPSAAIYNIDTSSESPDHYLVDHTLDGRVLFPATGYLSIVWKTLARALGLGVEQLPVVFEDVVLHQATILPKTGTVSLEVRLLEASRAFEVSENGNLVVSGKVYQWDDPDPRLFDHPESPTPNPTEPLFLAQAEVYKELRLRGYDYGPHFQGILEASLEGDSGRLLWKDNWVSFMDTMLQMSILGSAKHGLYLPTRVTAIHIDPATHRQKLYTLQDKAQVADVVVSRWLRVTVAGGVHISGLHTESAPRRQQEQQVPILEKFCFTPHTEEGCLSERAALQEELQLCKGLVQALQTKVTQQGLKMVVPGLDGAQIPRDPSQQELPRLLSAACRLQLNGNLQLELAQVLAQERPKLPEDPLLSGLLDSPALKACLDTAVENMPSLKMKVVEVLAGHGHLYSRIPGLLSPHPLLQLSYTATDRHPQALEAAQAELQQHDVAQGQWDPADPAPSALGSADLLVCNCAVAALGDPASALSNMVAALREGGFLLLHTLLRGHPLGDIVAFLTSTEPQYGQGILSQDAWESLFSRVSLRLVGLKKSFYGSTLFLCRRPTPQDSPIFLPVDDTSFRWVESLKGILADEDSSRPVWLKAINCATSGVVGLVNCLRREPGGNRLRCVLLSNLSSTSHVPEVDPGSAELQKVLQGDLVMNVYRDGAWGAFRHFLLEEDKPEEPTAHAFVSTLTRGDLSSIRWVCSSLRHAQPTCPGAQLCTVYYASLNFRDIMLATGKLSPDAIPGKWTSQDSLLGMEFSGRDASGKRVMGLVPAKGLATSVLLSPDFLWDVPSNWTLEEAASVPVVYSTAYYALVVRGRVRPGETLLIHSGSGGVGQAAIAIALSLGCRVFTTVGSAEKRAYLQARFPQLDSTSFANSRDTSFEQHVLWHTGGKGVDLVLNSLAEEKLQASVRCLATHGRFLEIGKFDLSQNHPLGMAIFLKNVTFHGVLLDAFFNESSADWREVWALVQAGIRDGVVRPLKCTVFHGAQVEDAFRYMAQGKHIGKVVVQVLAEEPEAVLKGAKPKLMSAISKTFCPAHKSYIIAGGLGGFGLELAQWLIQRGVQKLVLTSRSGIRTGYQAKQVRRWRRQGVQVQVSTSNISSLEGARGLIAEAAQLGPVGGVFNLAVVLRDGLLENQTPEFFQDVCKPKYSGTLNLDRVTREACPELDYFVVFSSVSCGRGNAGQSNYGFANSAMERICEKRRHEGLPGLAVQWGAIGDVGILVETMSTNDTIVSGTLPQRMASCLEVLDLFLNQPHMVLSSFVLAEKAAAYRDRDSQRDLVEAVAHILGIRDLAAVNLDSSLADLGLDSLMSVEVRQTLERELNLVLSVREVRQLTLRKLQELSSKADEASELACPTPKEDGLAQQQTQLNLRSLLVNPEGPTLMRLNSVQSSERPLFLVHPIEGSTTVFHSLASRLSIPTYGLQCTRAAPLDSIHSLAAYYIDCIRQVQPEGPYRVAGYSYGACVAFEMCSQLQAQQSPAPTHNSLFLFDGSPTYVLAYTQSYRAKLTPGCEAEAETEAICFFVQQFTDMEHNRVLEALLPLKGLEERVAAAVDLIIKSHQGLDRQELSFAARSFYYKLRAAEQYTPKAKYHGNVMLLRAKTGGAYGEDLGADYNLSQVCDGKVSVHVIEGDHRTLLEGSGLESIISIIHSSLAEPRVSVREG
In short: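 Human GST-tagged FASN, baculovirus-expressed (5 nM), in 50 mM HEPES pH 7.5 with 150 μM NADPH, 10 μM acetyl-CoA, 25 μM malonyl-CoA, 0.5% DMSO; malonyl-CoA-started, 90 min. Released CoA detected with CPM (50 μM dilution), 30 min, fluorescence ex 390/em 530. IC50 from variable-slope sigmoidal fit of % inhibition versus log concentration.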

[2] = read-out: IC50 data for Compounds of Formulae I-V/V(a): Activity
[3] = read-out: IC50 data for Additional Compounds of Formulae I-V(a): Activity

Structure (SMILES) | melting point [°C] | IC50 [1, 2] [µM] | IC50 [1, 3] [µM]
CC(C)C(=O)N1CCC(Oc2ccc(-c3ccc4cnccc4c3)nc2)CC1 (as salt: HCl) [Example 148, 1-[4-(6-Isoquinolin-6-yl-pyridin-3-yloxy)-piperidin-1-yl]-2-methyl-propan-1-one, 2HCl] | 236 to 241 |  | 
O=C(C1CC1)N1CCC(Oc2ccc(-c3ccc4cnccc4c3)nc2)CC1 (as salt: HCl) [Example 149, Cyclopropyl-[4-(6-isoquinolin-6-yl-pyridin-3-yloxy)-piperidin-1-yl]-methanone, 2HCl] | 136 to 146 |  | 
CC(C)C(=O)N1CCC(Sc2ccc(-c3ccc4cccnc4c3)cc2)CC1 (as salt: HCl) [Example 520] | 120 |  | 
CC(C)C(=O)N1CCC(Sc2ccc(-c3ccc4cnccc4c3)cc2)CC1 (as salt: HCl) [Example 521, 1-(4-((4-(Isoquinolin-6-yl)phenyl)thio)piperidin-1-yl)-2-methylpropan-1-one HCl] | 228 |  | 
CC(C)C(=O)N1CCC(Sc2ccc(-c3cncc4ccccc34)cc2)CC1 (as salt: HCl) [Example 523, 1-(4-((4-(Isoquinolin-4-yl)phenyl)thio)piperidin-1-yl)-2-methylpropan-1-one HCl] | 120 |  | 
CCCCNC(=O)N1CCC(Oc2ccc(-c3ccc4nccn4c3Cl)cc2)CC1 [Example 563, N-Butyl-4-[4-(5-chloroimidazo[1,2-a]pyridin-6-yl)phenoxy]piperidine-1-carboxamide] | 171 to 177 |  | 0.001 to 0.099
CCNC(=O)N1CCC(Oc2ccc(-c3ccc4nccn4c3Cl)cc2)CC1 [Example 564, 4-[4-(5-Chloroimidazo[1,2-a]pyridin-6-yl)phenoxy]-N-ethyl-piperidine-1-carboxamide] | 189 to 193 |  | 1 to 10
CC(C)CNC(=O)N1CCC(Oc2ccc(-c3ccc4nccn4c3Cl)cc2)CC1 [Example 565, 4-[4-(5-Chloroimidazo[1,2-a]pyridin-6-yl)phenoxy]-N-isobutyl-piperidine-1-carboxamide] | 201 |  | 0.1 to 0.999
CCCNC(=O)N1CCC(Oc2ccc(-c3ccc4nccn4c3Cl)cc2)CC1 [Example 566, 4-[4-(5-Chloroimidazo[1,2-a]pyridin-6-yl)phenoxy]-N-propyl-piperidine-1-carboxamide] | 184 |  | 0.001 to 0.099
COCCNC(=O)N1CCC(Oc2ccc(-c3ccc4nccn4c3Cl)cc2)CC1 [Example 567, 4-[4-(5-Chloroimidazo[1,2-a]pyridin-6-yl)phenoxy]-N-(2-methoxyethyl)-piperidine-1-carboxamide] | 135 to 138 |  | 0.1 to 0.999
O=C(NCC1CC1)N1CCC(Oc2ccc(-c3ccc4nccn4c3Cl)cc2)CC1 [Example 568, 4-[4-(5-Chloroimidazo[1,2-a]pyridin-6-yl)phenoxy]-N-(cyclopropylmethyl)-piperidine-1-carboxamide] | 183 to 185 |  | 1 to 10
CC(C)ONC(=O)N1CCC(Oc2ccc(-c3ccc4nccn4c3Cl)cc2)CC1 [Example 569, 4-[4-(5-Chloroimidazo[1,2-a]pyridin-6-yl)phenoxy]-N-isopropoxy-piperidine-1-carboxamide] | 175 |  | 0.1 to 0.999
CC(C)NC(=O)N1CCC(Oc2ccc(-c3ccc4nccn4c3Cl)cc2)CC1 [Example 570, 4-[4-(5-Chloroimidazo[1,2-a]pyridin-6-yl)phenoxy]-N-isopropyl-piperidine-1-carboxamide] | 220 |  | 0.001 to 0.099
CC(C)CONC(=O)N1CCC(Oc2ccc(-c3ccc4nccn4c3Cl)cc2)CC1 [Example 571, 4-[4-(5-Chloroimidazo[1,2-a]pyridin-6-yl)phenoxy]-N-isobutoxy-piperidine-1-carboxamide] | 157 |  | 1 to 10
CC(C)CCNC(=O)N1CCC(Oc2ccc(-c3ccc4nccn4c3Cl)cc2)CC1 [Example 572, 4-[4-(5-Chloroimidazo[1,2-a]pyridin-6-yl)phenoxy]-N-isopentyl-piperidine-1-carboxamide] | 185 |  | 1 to 10
CCCONC(=O)N1CCC(Oc2ccc(-c3ccc4cccnc4c3C)cc2)CC1 [Example 574, 4-[4-(8-Methyl-7-quinolyl)phenoxy]-N-propoxy-piperidine-1-carboxamide] | 75 |  | 0.001 to 0.099
O=C(NO)N1CCC(Oc2ccc(-c3ccc4nccn4c3Cl)cc2)CC1 [Example 575, 4-[4-(5-Chloroimidazo[1,2-a]pyridin-6-yl)phenoxy]piperidine-1-carbohydroxamic acid] | 232 |  | 0.001 to 0.099
NC(=O)N1CCC(Oc2ccc(-c3ccc4nccn4c3Cl)cc2)CC1 [Example 577, 4-[4-(5-Chloroimidazo[1,2-a]pyridin-6-yl)phenoxy]piperidine-1-carboxamide] | 204 |  | 0.1 to 0.999
Cc1nccc2cc(-c3ccc(OC4CCN(C(=O)NCC(C)C)CC4)cc3)ccc12 [Example 580, N-Isobutyl-4-[4-(1-methyl-6-isoquinolyl)phenoxy]piperidine-1-carboxamide] | 157 |  | 0.001 to 0.099

Second part, the compound after the results:

melting point [°C] | IC50 [1, 2] [µM] | IC50 [1, 3] [µM] | Structure (SMILES)
60 |  |  | CCC(=O)N1CC[C@H](Oc2ccc(-c3cnc4ccccc4c3)cc2)C1 (as salt: HCl) [Example 343, (S)-1-(3-(4-(Quinolin-3-yl)phenoxy)pyrrolidin-1-yl)propan-1-one, HCl]
53 |  |  | CCC(=O)N1CC[C@@H](Oc2ccc(-c3ccc4cccnc4c3)cc2)C1 (as salt: HCl) [Example 344, (R)-1-(3-(4-(Quinolin-7-yl)phenoxy)pyrrolidin-1-yl)propan-1-one, HCl]
51 |  |  | CCC(=O)N1CC[C@@H](Oc2ccc(-c3cnc4ccccc4c3)cc2)C1 (as salt: HCl) [Example 345, (R)-1-(3-(4-(quinolin-3-yl)phenoxy)pyrrolidin-1-yl)propan-1-one, HCl]
188 |  |  | CCC(=O)N1CCC(Sc2ccc(-c3ccc4cccnc4c3)cc2)CC1 (as salt: HCl) [Example 516, 1-(4-((4-(quinolin-7-yl)phenyl)thio)piperidin-1-yl)propan-1-one, HCl]
222 |  |  | CCC(=O)N1CCC(Sc2ccc(-c3ccc4cnccc4c3)cc2)CC1 (as salt: HCl) [Example 517, 1-(4-((4-(Isoquinolin-6-yl)phenyl)thio)piperidin-1-yl)propan-1-one, HCl]
70 |  |  | CCC(=O)N1CCC(Sc2ccc(-c3cnc4ccccc4c3)cc2)CC1 (as salt: HCl) [Example 518, 1-(4-((4-(Quinolin-3-yl)phenyl)thio)piperidin-1-yl)propan-1-one, HCl]
88 |  |  | CCC(=O)N1CCC(Sc2ccc(-c3cncc4ccccc34)cc2)CC1 (as salt: HCl) [Example 519, 1-(4-((4-(Isoquinolin-4-yl)phenyl)thio)piperidin-1-yl)propan-1-one, HCl]
130 |  |  | CC(C)C(=O)N1CCC(Sc2ccc(-c3cnc4ccccc4c3)cc2)CC1 (as salt: HCl) [Example 522, 2-Methyl-1-(4-((4-(quinolin-3-yl)phenyl)thio)piperidin-1-yl)propan-1-one, HCl]
162 to 166 | 1 to 10 |  | CCC(=O)N1CCC(Oc2ncc(-c3cnc4ccccc4c3)cn2)CC1 [Example 143, 1-[4-(5-Quinolin-3-yl-pyrimidin-2-yloxy)-piperidin-1-yl]-propan-1-one]
183 to 185 | 1 to 10 |  | CCC(=O)N1CCC(Oc2ccc(-c3cnc4ccccc4c3)cc2Cl)CC1 [Example 191, 1-[4-(2-Chloro-4-quinolin-3-yl-phenoxy)-piperidin-1-yl]-propan-1-one]
172 | 0.1 to 0.999 |  | CCC(=O)N1CC(Oc2ccc(-c3cnc4ccccc4c3)cc2)C1 [Example 338, 1-(3-(4-(Quinolin-3-yl)phenoxy)azetidin-1-yl)propan-1-one]
162 | 1 to 10 |  | CC(C)C(=O)N1CC(Oc2ccc(-c3cnc4ccccc4c3)cc2)C1 [Example 339, 2-Methyl-1-(3-(4-(quinolin-3-yl)phenoxy)azetidin-1-yl)propan-1-one]
187 | 1 to 10 |  | O=C(C1CC1)N1CC(Oc2ccc(-c3cnc4ccccc4c3)cc2)C1 [Example 340, Cyclopropyl(3-(4-(quinolin-3-yl)phenoxy)azetidin-1-yl)methanone]
201 | 1 to 10 |  | CC(C)CC(=O)N1CC(Oc2ccc(-c3cnc4ccccc4c3)cc2)C1 [Example 341, 3-Methyl-1-(3-(4-(quinolin-3-yl)phenoxy)azetidin-1-yl)butan-1-one]
211 |  | 1 to 10 | CCNC(=O)N1CCC(Oc2ccc(-c3ccc4c(C)nccc4c3)cc2)CC1 [Example 578, N-Ethyl-4-[4-(1-methyl-6-isoquinolyl)phenoxy]piperidine-1-carboxamide]
181 |  | 0.1 to 0.999 | CCCNC(=O)N1CCC(Oc2ccc(-c3ccc4c(C)nccc4c3)cc2)CC1 [Example 579, 4-[4-(1-Methyl-6-isoquinolyl)phenoxy]-N-propyl-piperidine-1-carboxamide]
232 |  | 0.001 to 0.099 | Cc1nccc2cc(-c3ccc(OC4CCN(C(N)=O)CC4)cc3)ccc12 [Example 581, 4-[4-(1-Methyl-6-isoquinolyl)phenoxy]piperidine-1-carboxamide]
